We go through 15 molecules from patent EP4803519A1, “NOVEL PRMT5 INHIBITOR AND USE THEREOF” (Shanghai Apeiron Therapeutics Company Limited, priority 2023, dated 2025).

What all share (assay type): cell-based
For experiment [1], the system named is HCT-116 MTAP(-/-)deleted cells. The experiment in a line: Inhibitory activity on proliferation of HCT-116 MTAP(-/-)deleted cells (Cell-Titer Glo). The following applies: Homo sapiens, 144 h, incubated 6 d, 0-1,000 nM. The essentials:
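HCT-116 MTAP(-/-) cells in RPMI 1640 with 10% FBS were seeded overnight, then exposed to compound (10 points, 2.5-fold dilutions from 1,000 nM; 0.2% DMSO) for 6 d at 37 °C. Viability was read by CellTiter-Glo luminescence.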

A further experiment concerns HCT-116 wild-type cells. The experiment can be described thus: Inhibitory activity on proliferation of HCT-116 wild-type cells (Cell-Titer Glo). The following applies: Homo sapiens, 144 h, incubated 6 d, 0-10,000 nM. The essentials: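 HCT-116 wild-type cells in RPMI-1640 with 10% FBS were plated overnight, then exposed to compound for 6 d at 37°C (0–10,000 nM final, 2.5-fold, 10 points, 0.2% DMSO). Viability was read by Cell-Titer Glo luminescence.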

For experiment [2], the system named is LU99 MTAP(-/-)deleted cells. The experiment can be described thus: Inhibitory activity on proliferation of LU99 MTAP(-/-)deleted cells (Cell-Titer Glo). To be noted: Homo sapiens, Lu-99, 144 h, incubated 6 d, 0-1,000 nM. The essentials:
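Log-phase MTAP-deleted LU99 cells in 10%-FBS medium were plated overnight. Compound was then added at final 0–1,000 nM (10 points, 2.5-fold dilution from 1,000 nM) in 0.2% DMSO.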

The subject of experiment [3] is LU99 MTAP overexpressing cells. The experiment can be described thus: Inhibitory activity on proliferation of LU99 MTAP overexpressing cells (Cell-Titer Glo). The following applies: Homo sapiens, Lu-99, 144 h, incubated 6 d, 0-10,000 nM. The essentials: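 After overnight seeding, LU99 cells overexpressing MTAP were exposed to compound at 0-10,000 nM (10 points, 2.5-fold dilutions, 0.2% DMSO) for 6 d at 37°C, 5% CO2. Viability read by Cell-Titer Glo luminescence.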

Regarding `CN(C(=O)c1cc2c3c(c(N)nc2cn1)COC3)C1COC2(CCC2)c2cc(C(F)(F)F)ccc21` (stereo not drawn) [Example 29, 4-Amino-N-methyl-N-(7'-(trifluoromethyl)spiro[cyclobutane-1,1'-isochroman]-4'-yl)-1,3-dihydrofuro[3,4-c][1,7]naphthyridine-8-carboxamide], the IC50 (as a rule, the point on the concentration scale where inhibition reaches its midpoint) in experiment [1] turned out to be 17 nM; in the experiment on HCT-116 wild-type cells, 1790 nM; in experiment [2] it was 23.7 nM; in experiment [3], 1030 nM.

As to `CN(C(=O)c1cc2c(cc1C(F)(F)F)nc(N)c1cnn(C)c12)[C@@H]1COC(C)(C)c2cc(C(F)(F)F)ccc21` [Example 38, N-[(4S)-1,1-dimethyl-7-(trifluoromethyl)isochroman-4-yl] [4-amino-1-methyl-7-(trifluoromethyl)pyrazolo[4,5-c]quinolin-8-yl]-N-methylformamide], the IC50 turned out to be 8.1 nM in experiment [1], 1470 nM in the experiment with HCT-116 wild-type cells, 15 nM in experiment [2] and 2050 nM in experiment [3].

On to `CN(C(=O)c1ccc2nc(N)c3cnn(C)c3c2c1)[C@@H]1COC(C)(C)c2cc(C(F)(F)F)ccc21` [Example 16, (S)-4-amino-N-(1,1-dimethyl-7-(trifluoromethyl)isochroman-4-yl)-N,1-dimethyl-1H-pyrazolo[4,3-c]quinoline-8-carboxamide], for which the IC50 in experiment [1] stood at 3.7 nM; with HCT-116 wild-type cells, 487 nM; in experiment [2], 4.7 nM; in experiment [3], 682 nM.

With `CN(C(=O)c1cc2c3c(c(N)nc2cn1)COC3)C1COC2(CC2)c2cc(C(F)(F)F)ccc21` (stereo not drawn) [Example 40, 4-Amino-N-methyl-N-(7'-(trifluoromethyl)spiro[cyclopropane-1,1'-isochroman]-4'-yl)-1,3-dihydrofuro[3,4-c][1,7]naphthyridine-8-carboxamide], the IC50 in experiment [1] came to 13 nM; in the experiment with HCT-116 wild-type cells it was 2200 nM; in experiment [2] it was 21.2 nM; in experiment [3], 2040 nM.

With `CN(C(=O)c1ccc2nc(N)c3cnn(C)c3c2c1)[C@@H]1COC(C)(C)c2cc(-c3cscn3)ccc21` [Example 42, N-((4S)-1,1-dimethyl-7-(1,3-thiazol-4-yl)isochroman-4-yl)(4-amino-1-methylpyrazolo[4,5-c]quinolin-8-yl)-N-methylformamide], the half-maximal inhibitory concentration (IC50) in experiment [1] is 4.4 nM; with HCT-116 wild-type cells it was 1760 nM; in experiment [2], 6.1 nM; in experiment [3], 1140 nM.

Turning to `CN(C(=O)c1cc2c3c(c(N)nc2cn1)COC3)[C@H]1COC2(CCC2)c2cc(C(F)(F)F)ccc21` [Example 45, (R)-4-amino-N-methyl-N-(7'-(trifluoromethyl)spiro[cyclobutane-1,1'-isochroman]-4'-yl)-1,3-dihydrofuro[3,4-c][1,7]naphthyridine-8-carboxamide], the IC50 in experiment [1] is 874 nM; with HCT-116 wild-type cells, greater than 10000 nM; in experiment [2], 944 nM; in experiment [3], greater than 10000 nM.

On to `CN(C(=O)c1cc2c(cc1F)nc(N)c1cnn(C)c12)C1COC(C)(C)c2cc(Br)ccc21` (stereo not drawn) [Example 13, (4-Amino-7-fluoro-1-methylpyrazolo[4,5-c]quinolin-8-yl)-N-(7-bromo-1,1-dimethylisochroman-4-yl)-N-methylformamide], for which the IC50 in experiment [1] came to 10.9 nM; in the experiment on HCT-116 wild-type cells it was 720 nM; in experiment [2] it was 18.9 nM; in experiment [3] it was 1070 nM.

For `CN(C(=O)c1cc2c(cn1)nc(N)c1cnn(C)c12)[C@H]1COC(C)(C)c2cc(C(F)(F)F)ccc21` [Example 27, (R)-4-amino-N-(1,1-dimethyl-7-(trifluoromethyl)isochroman-4-yl)-N,1-dimethyl-1H-pyrazolo[4,3-c][1,7]naphthyridine-8-carboxamide], the IC50 in experiment [1] is 74 nM; with HCT-116 wild-type cells, greater than 10000 nM; in experiment [2], 51.9 nM; in experiment [3], 9590 nM.

For the molecule `CN(C(=O)c1ccc2nc(N)c3cnn(C)c3c2c1)[C@@H]1COC(C)(C)c2cc(N3CCNCC3)ccc21` [Example 83], the IC50 is 103 nM in experiment [1], 10500 nM with HCT-116 wild-type cells, 102 nM in experiment [2] and 12700 nM in experiment [3].

Take `CN(C(=O)c1cc2c3c(c(N)nc2cn1)COC3)[C@H]1COC(C)(C)c2cc(C(F)(F)F)ccc21` [Example 25, (R)-4-Amino-N-(1,1-dimethyl-7-(trifluoromethyl)isochroman-4-yl)-N-methyl-1,3-dihydrofuro[3,4-c][1,7]naphthyridine-8-carboxamide]: the IC50 is 817 nM in experiment [1], greater than 10000 nM with HCT-116 wild-type cells, 503 nM in experiment [2] and greater than 10000 nM in experiment [3].

On to `CN(C(=O)c1cc2c(cn1)nc(N)c1cnn(C)c12)[C@@H]1COC(C)(C)c2cc(C(F)(F)F)ccc21` [Example 28, (S)-4-amino-N-(1,1-dimethyl-7-(trifluoromethyl)isochroman-4-yl)-N,1-dimethyl-1H-pyrazolo[4,3-c][1,7]naphthyridine-8-carboxamide], for which the IC50 in experiment [1] was 10.3 nM; in the experiment with HCT-116 wild-type cells, 226 nM; in experiment [2] it was 10.7 nM; in experiment [3], 376 nM.

For the molecule `CN(C(=O)c1cc2c(cc1F)nc(N)c1cnn(C)c12)C1COC(C)(C)c2cc(-c3ccnn3C)ccc21` (stereo not drawn) [Example 14, (4-amino-7-fluoro-1-methylpyrazolo[4,5-c]quinolin-8-yl)-N-[1,1-dimethyl-7-(1-methylpyrazol-5-yl)isochroman-4-yl]-N-methylformamide], the IC50 stood at 4.1 nM in experiment [1], 286 nM with HCT-116 wild-type cells, 5.9 nM in experiment [2] and 309 nM in experiment [3].

As for `CN(C(=O)c1ccc2nc(N)c3cnn(C)c3c2c1)[C@@H]1COC(C)(C)c2cc(N3CCOCC3)ccc21` [Example 33, (S)-4-amino-N-(1,1-dimethyl-7-morpholinoisochroman-4-yl)-N,1-dimethyl-1H-pyrazolo[4,3-c]quinoline-8-carboxamide], the IC50 in experiment [1] stood at 5.3 nM; with HCT-116 wild-type cells it was 1340 nM; in experiment [2], 8.6 nM; in experiment [3] it was 2260 nM.

Regarding `CN(C(=O)c1ccc2nc(N)c3cnn(C)c3c2c1)C1COC(C)(C)c2cc(-c3cccc4c3cnn4C)ccc21` (stereo not drawn) [Example 46, 4-amino-N-(1,1-dimethyl-7-(1-methyl-1H-indazol-4-yl)isochroman-4-yl)-N,1-dimethyl-1H-pyrazolo[4,3-c]quinoline-8-carboxamide], the IC50 in experiment [1] was 4.3 nM; in the experiment on HCT-116 wild-type cells, 1100 nM; in experiment [2], 7.9 nM; in experiment [3], 1050 nM.

Regarding `CN(C(=O)c1ccc2nc(N)c3cnn(C)c3c2c1)[C@@H]1COC(C)(C)c2cc(N3CC4(COC4)C3)ccc21` [Example 49, (S)-4-amino-N-(1,1-dimethyl-7-(2-oxa-6-azaspiro[3.3]heptan-6-yl)isochroman-4-yl)-N,1-dimethyl-1H-pyrazolo[4,3-c]quinoline-8-carboxamide], the IC50 in experiment [1] came to 7.9 nM; in the experiment on HCT-116 wild-type cells it was 3850 nM; in experiment [2], 19.2 nM; in experiment [3], 5890 nM.
